Experimental data from ChEMBL document CHEMBL4840378 (J Med Chem, 2021).

Tests used:
[1] = Metabolic stability in rat liver S9 fraction assessed as compound remaining measured after 1 hr; assay type: ADME, subcellular; settings: read-out: Stability
[2] = Metabolic stability in human liver S9 fraction assessed as compound remaining measured after 1 hr; assay type: ADME, subcellular; settings: read-out: Stability
[3] = AUCinf in rat at 10 mg/kg, po; assay type: ADME, organism-based; design: route oral, time infinity, dose 10 mg/kg; settings: in vivo
[4] = Clearance in rat at 2 mg/kg; assay type: ADME, organism-based; settings: in vivo

SMILES | remaining at 1 h [1] [%] | remaining at 1 h [2] [%] | AUC(0-inf) [3] [µM·h] | clearance [4] [mL/min/kg]
NC(=O)c1cnc(NC23CC(C2)C3)nc1N[C@@H]1CCC[C@H](O)C1 | 75 | 96 | 2.25 | –
CC(C)(C)Nc1ncc(C(N)=O)c(N[C@@H]2CCC[C@H](O)C2)n1 | 98 | 93 | 10.8 | 78
C[C@@H]1CC[C@@H](Nc2nc(NC(C)(C)C)ncc2C(N)=O)C[C@H]1O [CC-90001] | – | – | 35.5 | 11
NC(=O)c1cnc(NC2CCCCC2)nc1N[C@@H]1CCC[C@H](O)C1 | 1 | 77 | – | –

Continued, values first:

remaining at 1 h [1] [%] | remaining at 1 h [2] [%] | AUC(0-inf) [3] [µM·h] | clearance [4] [mL/min/kg] | SMILES
47 | 91 | – | – | CO[C@H]1CCC[C@@H](Nc2nc(N[C@H]3CC[C@H](OC)CC3)ncc2C(N)=O)C1
1 | 61 | – | – | CO[C@H]1CC[C@H](Nc2ncc(C(N)=O)c(N[C@@H]3CCCC(F)(F)C3)n2)CC1 (mixture of isomers)
